According to ChEMBL document CHEMBL1201862, “PubChem BioAssay data set” (2004):
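Cultured in 96-well plates, cells were exposed to test compound for 48 hours across five concentrations. Abbreviation: GI50, concentration required for 50% inhibition of growth.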 The source made the active and inactive calls. Cut-off read from the data, not from the text of the source: active = GI50 up to about 1.1 µM and inactive = higher.

How the values were obtained:
Experiment in all cases: DTP human tumour cell line panel, 48 h
DMS-273 = system: DMS-273
DLD-1 = system: DLD-1
LXFL 529 = system: LXFL 529
A549 = system: A549
SK-MEL-2 = system: SK-MEL-2
SF-295 = system: SF-295
OVCAR-4 = system: OVCAR-4
HOP-62 = system: HOP-62
IGROV-1 = system: IGROV-1
A498 = system: A498
SR = system: SR
SK-OV-3 = system: SK-OV-3
COLO 205 = system: COLO 205
SN12C = system: SN12C
KM12 = system: KM12
SNB-75 = system: SNB-75
M19-MEL = system: M19-MEL
M14 = system: M14
SNB-78 = system: SNB-78
786-0 = system: 786-0
HCT-116 = system: HCT-116
KM-20L2 = system: KM-20L2
SF-539 = system: SF-539
SNB-19 = system: SNB-19
HCC 2998 = system: HCC 2998
CCRF-CEM = system: CCRF-CEM
UACC-257 = system: UACC-257
SK-MEL-5 = system: SK-MEL-5
LOX IMVI = system: LOX IMVI
U-251 = system: U-251
HOP-92 = system: HOP-92
UO-31 = system: UO-31
CAKI-1 = system: CAKI-1
HCT-15 = system: HCT-15
UACC-62 = system: UACC-62
MOLT-4 = system: MOLT-4
DMS-114 = system: DMS-114
NCI-H460 = system: NCI-H460
ACHN = system: ACHN
RXF 393 = system: RXF 393
XF498 = system: XF498
K562 = system: K562
EKVX = system: EKVX
NCI-H23 = system: NCI-H23
SF-268 = system: SF-268
OVCAR-8 = system: OVCAR-8
SK-MEL-28 = system: SK-MEL-28
SW-620 = system: SW-620
HL-60 = system: HL-60
RPMI-8226 = system: RPMI-8226
TK-10 = system: TK-10
OVCAR-3 = system: OVCAR-3
OVCAR-5 = system: OVCAR-5
Malme-3M = system: Malme-3M
NCI-H226 = system: NCI-H226
HT-29 = system: HT-29
NCI-H522 = system: NCI-H522

Measured: GI50

COC(=O)C1CCC(=O)N1/C(C)=N/NC(=O)Nc1ccc(Cl)c(Cl)c1 (stereo not given)
inactive: DMS-273 > 100 µM | DLD-1 > 100 µM | LXFL 529 28 µM | A549 > 100 µM | SK-MEL-2 > 100 µM | SF-295 > 100 µM | OVCAR-4 > 100 µM | HOP-62 > 100 µM | IGROV-1 > 100 µM | A498 > 100 µM | SR > 100 µM | SK-OV-3 43.4 µM | COLO 205 > 100 µM | SN12C > 100 µM | KM12 98.4 µM | SNB-75 65.3 µM | M19-MEL > 100 µM | M14 > 100 µM | SNB-78 > 100 µM | 786-0 > 100 µM | HCT-116 > 100 µM | KM-20L2 32.2 µM | SF-539 > 100 µM | SNB-19 > 100 µM | HCC 2998 > 100 µM | CCRF-CEM > 100 µM | UACC-257 > 100 µM | SK-MEL-5 > 100 µM | LOX IMVI 31.5 µM | U-251 > 100 µM | HOP-92 > 100 µM | UO-31 > 100 µM | CAKI-1 74.6 µM | UACC-62 10.5 µM | MOLT-4 99.1 µM | DMS-114 > 100 µM | NCI-H460 > 100 µM | ACHN 21 µM | RXF 393 > 100 µM | XF498 > 100 µM | K562 16.6 µM | EKVX > 100 µM | NCI-H23 > 100 µM | SF-268 69.5 µM | OVCAR-8 > 100 µM | SK-MEL-28 > 100 µM | SW-620 > 100 µM | HL-60 > 100 µM | RPMI-8226 > 100 µM | TK-10 88.1 µM | OVCAR-3 > 100 µM
14.4 µM: HCT-15

CCO/C=C1\N=C(C(Cl)c2ccccc2)OC1=O (stereo not given)
> 100 µM: HCT-15
inactive: DMS-273 > 100 µM | DLD-1 > 100 µM | LXFL 529 > 100 µM | A549 > 100 µM | SK-MEL-2 > 100 µM | SF-295 > 100 µM | OVCAR-4 > 100 µM | HOP-62 > 100 µM | OVCAR-5 > 100 µM | IGROV-1 > 100 µM | A498 > 100 µM | Malme-3M > 100 µM | NCI-H226 > 100 µM | COLO 205 > 100 µM | SN12C > 100 µM | KM12 > 100 µM | SNB-75 > 100 µM | M19-MEL > 100 µM | M14 > 100 µM | SNB-78 > 100 µM | 786-0 > 100 µM | KM-20L2 > 100 µM | SF-539 > 100 µM | SNB-19 > 100 µM | HCC 2998 > 100 µM | CCRF-CEM > 100 µM | UACC-257 > 100 µM | SK-MEL-5 > 100 µM | LOX IMVI > 100 µM | HOP-92 > 100 µM | UO-31 > 100 µM | CAKI-1 > 100 µM | UACC-62 > 100 µM | MOLT-4 > 100 µM | DMS-114 61.5 µM | NCI-H460 > 100 µM | ACHN > 100 µM | RXF 393 > 100 µM | XF498 > 100 µM | K562 > 100 µM | EKVX > 100 µM | NCI-H23 > 100 µM | SF-268 > 100 µM | OVCAR-8 > 100 µM | HT-29 > 100 µM | SK-MEL-28 > 100 µM | NCI-H522 > 100 µM | SW-620 > 100 µM | HL-60 > 100 µM | RPMI-8226 > 100 µM | TK-10 > 100 µM | OVCAR-3 > 100 µM
